Test [1] deals with platelet aggregation in dog PRP. The experiment in a line: In-vitro platelet aggregation in PRP (ADP-induced, dog platelet-rich plasma). Type of test: cell-based. The conditions noted are these: Canis lupus familiaris, ADP 50 μm final concentration, 37° C., 1 minute preincubation. Here is the method: Healthy male or female dogs were fasted for 8 hours prior to drawing blood; then 30 ml whole blood was collected using a butterfly needle and 30 cc plastic syringe with 3 ml of 0.129 M buffered sodium citrate (3.8%). The syringe was rotated carefully as blood was drawn to mix the citrate. Platelet-rich plasma (PRP) was prepared by centrifugation at 975×g for 3.17 minutes at room temperature, allowing the centrifuge to coast to a stop without braking. The PRP was removed from the blood with a plastic pipette and placed in a plastic capped, 50 ml Corning conical sterile centrifuge tube which was held at room temperature. Platelet poor plasma (PPP) was prepared by centrifuging the remaining blood at 2000×g for 15 minutes at room temperature allowing the centrifuge to coast to a stop without braking. The PRP was adjusted with PPP to a count of 2-3×10^8 platelets per ml. 400 μl of the PRP preparation and 50 μl of the compound to be tested or saline were preincubated for 1 minute at 37° C. in a BioData aggregometer (BioData, Horsham, Pa.). 50 μl of adenosine 5'-diphosphate (ADP) (50 μm final concentration) was added to the cuvettes and the aggregation was monitored for 1 minute. All compounds are tested in duplicate. Results are calculated as follows:
Percent of control=[(maximal OD minus initial OD of compound) divided by (maximal OD minus initial OD of control saline)]×100. The % inhibition=100-(percent of control).

In test [2] the test system is fibrinogen binding to platelets. The test is described as follows: Fibrinogen binding assay (125I-fibrinogen binding to ADP-activated human platelets). Particulars: ADP 10 μM, 125I-fibrinogen 0.3 μM, 40 min at 37° C. The protocol:
Fibrinogen binding was performed essentially as described by Plow et al., Blood 70, 110-115 (1987). Briefly, blood from humans who had not been given any antiplatelet drugs in the previous two weeks was collected into 1/10th volume of CCD buffer (100 mM sodium citrates, 136 mM glucose, pH 6.5). The blood was centrifuged for 3 min at 1000×g and platelet rich plasma was transferred to a plastic tube with a plastic pipet and placed on ice. After 15 minutes, 1/2 volume of ice cold CCD buffer was added and the sample was centrifuged at 900×g for 10 min at 2° C. The supernatant was decanted and the platelet pellet was gently resuspended in 1/2 the original volume of ice cold modified Tyrode's buffer (137 mM NaCl, 2.6 mM KCl, 12 mM NaHCO3, 5.5 mM glucose, 15 mM HEPES, 0.5% BSA, pH 7.4). After incubating for 30 minutes at 37° C., the platelet count was adjusted to 4×10^8 platelets/ml with modified Tyrode's buffer. To test samples (final concentration=1×10^8 platelets/ml) were added in sequence: ADP (10 μM), CaCl2 (2 mM), test compound, and ^125 I-fibrinogen (0.3 μM) to the aforesaid final concentrations in a volume of 200 μ1. […] Specific binding was determined in each test by subtracting from the total binding the amount of ^125 I-fibrinogen bound in the presence of a 60-fold excess of unlabeled fibrinogen. […]

What is called IC50 is the concentration needed to halve the response being measured. As to `N=C(N)c1ccc(NC(=O)CCC(=O)N[C@@H](CC(=O)O)C(=O)N[C@@H](Cc2ccccc2)C(=O)O)cc1` [Example 2, N-[N-[4-[[4-(aminoiminomethyl)phenyl]amino]-1,4-dioxobutyl]-L-alpha-aspartyl]-L-phenylalanine], the midpoint of inhibition in test [1], the IC50, lay at 80 nM.
As to `COC(=O)[C@H](Cc1ccccc1)NC(=O)[C@H](CC(=O)O)NC(=O)CCC(=O)Nc1ccc(C(=N)N)cc1` [Example 1, N-[N-[4-[[4-(aminoiminomethyl)phenyl]-amino]-1,4-dioxobutyl]-L-alpha-aspartyl]-L-phenylalanine, 1-methyl ester], the figures for the IC50 in test [1] and in test [2] were 90 nM and 48 nM, respectively.
As to `N=C(N)c1ccc(N(Cc2ccccc2)C(=O)CCC(=O)N[C@@H](CC(=O)O)C(=O)N[C@@H](Cc2ccccc2)C(=O)O)cc1` [Example 9], in test [1], the IC50 stood at 350 nM.

The values are drawn from patent US5453440A, “Peptide mimics useful as platelet aggregation inhibitors” (G. D. Searle & Co., priority 1993, dated 1995).
